# Target: T1, Recombinant human thymidylate synthase (hTS) (Homo sapiens, UniProt P04818)
# T1 construct: purchased Abcam
# Assay: Human thymidylate synthase inhibition assay
# Assay type: biochemical
# Settings: for hTS inhibition: highest concentration tested 20 μM
# Description: Recombinant human thymidylate synthase (hTS) was purchased from Abcam. […] 5,10-Methylenetetrahydrofolate (calcium salt) was purchased from Boc Sciences and used without further purification.
# The hTS inhibition assays were performed on a BioTek Synergy Neo2 plate reader equipped with a Xenon flash lamp and a photodiode array detector. The hTS reaction was conducted at room temperature in a buffer solution (pH 7.5) containing 50 mM Tris-HCl, 1 mM EDTA, 25 mM MgCl2, and 5 mM HCHO. […] 5,10-Methylenetetrahydrofolate was added last to initiate the reaction. Formation of the co-product, dihydrofolate, was monitored at 340 nm. The absorbance at 340 nm was plotted against the reaction time to calculate the reaction rate (i.e., the slope of the linear fitting). The reaction rates at different inhibitor concentrations were normalized to the reaction rate determined in the absence of inhibitor (100% enzymatic activity). The resulting % enzymatic activity values were plotted against the corresponding log value of the inhibitor concentration to construct concentration-response curves. IC50 values were then calculated using non-linear regression (four-parameter logistic equation, see Equation 1 below) in the GraphPad Prism v.9 software.
# Y=Ymin+(Ymax−Ymin)/[1+10^((logIC50−X)×Hill Slope)] Equation 1
# T1 sequence (P04818 whole entry): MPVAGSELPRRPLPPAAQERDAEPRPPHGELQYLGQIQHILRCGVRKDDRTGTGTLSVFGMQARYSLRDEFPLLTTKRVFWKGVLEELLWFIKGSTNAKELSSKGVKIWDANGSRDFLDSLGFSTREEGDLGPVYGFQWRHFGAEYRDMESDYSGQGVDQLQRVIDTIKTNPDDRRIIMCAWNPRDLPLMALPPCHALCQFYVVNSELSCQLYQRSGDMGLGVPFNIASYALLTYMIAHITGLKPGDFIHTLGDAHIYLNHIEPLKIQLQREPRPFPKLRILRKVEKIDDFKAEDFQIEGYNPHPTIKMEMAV
Compound,hTS inhibition,"IC50 (50 μM dUMP, 0.84 μM hTS, five repeats, pH 7.5, room temperature, read-out: IC50 against hTS) [nM]"
"CC(C)(OP(=O)([O-])[O-])[C@H]1O[C@@H](n2cc(F)c(=O)[nH]c2=O)C[C@@H]1O.[Li+].[Li+] [MD-7-115, lithium 2-((2S,3S,5R)-5-(5-fluoro-2,4-dioxo-3,4-dihydropyrimidin-1(2H)-yl)-3-hydroxytetrahydrofuran-2-yl)propan-2-yl phosphate]",inactive,
"C[C@H](OP(=O)(O)O)[C@H]1O[C@@H](n2cc(F)c(=O)[nH]c2=O)C[C@@H]1O [MD-7-112, lithium (S)-1-((2S,3S,5R)-5-(5-fluoro-2,4-dioxo-3,4-dihydropyrimidin-1(2H)-yl)-3-hydroxytetrahydrofuran-2-yl)ethyl phosphate]",inactive,
"C[C@@H](OP(=O)(O)O)[C@H]1O[C@@H](n2cc(F)c(=O)[nH]c2=O)C[C@@H]1O [MD-7-105, lithium (R)-1-((2S,3S,5R)-5-(5-fluoro-2,4-dioxo-3,4-dihydropyrimidin-1(2H)-yl)-3-hydroxytetrahydrofuran-2-yl)ethyl phosphate]",,1210
